In US20220088024A1, “METHODS FOR TREATING CANCER USING TOZADENANT” (Biotie Therapies, Inc., priority 2018, published 2022):
Several values for one entry are separate records, joined by “and”; a condition that tells them apart may be missing. Identical values can stand only once.

Test system: CT26 colon carcinoma tumor
Assay: Example 7: SYN-115 dose range as single agent in the CT26 tumor mouse model (tumor area, survival)
Assay type: in vivo, BALB/c mice
Design: key: tumor area in mm^2 (width × length)
Protocol: The BALB/c mouse colon carcinoma cell line CT26 was cultured in RPMI supplemented with 10% FCS, GlutaMAX, and penicillin/streptomycin. Tumor cells are periodically verified to be Mycoplasma negative by the Victorian Infectious Diseases References Lab (Melbourne, VIC, Australia) by PCR analysis. 1×10^5 cells were resuspended in PBS and injected s.c. into BALB/c mice in a 100 μL volume. At day 7 tumors were measured and mice were randomized into distinct treatment groups to ensure that each group had tumors of similar size at the onset of treatment. Mice were treated with SYN-115 (Batch 71236AA006) at the indicated dose or vehicle control once-daily via oral gavage on days 7 to 20. To calculate a dose of SYN-115 mouse weight was estimated to be 20 g per mouse. Therefore, 100 mg/kg=2 mg per mouse in 200 μL, which is equivalent to 10 mg/ml. To make up 40 mL, 400 milligrams of SYN-115 was weighed and added into a Falcon tube, then 1 mL of Tween 80 was added and mixed into a paste and then 39 mL of 1% Methyl Cellulose was added. The solution was vortexed and then left on a rotating mixer for at least 2 hours and maintained at 4° C. Tumor measurements were taken 2-3 times per week. Tumor sizes were determined by width * length and mice were culled when tumors reached the ethical limit of 150 mm^2.

COc1ccc(N2CCOCC2)c2sc(NC(=O)N3CCC(C)(O)CC3)nc12 [SYN-115, 4-hydroxy-4-methyl-piperidine-1-carboxylic acid (4-methoxy-7-morpholin-4-yl-benzothiazol-2-yl)-amide]
Tumor area, individual mice (SYN-115 10 mg/kg, Day 0, 10 mg/kg): 4.86 and 6.44 and 7.56 and 8.37 and 8.84 and 11.2 | Tumor area, individual mice (SYN-115 10 mg/kg, Day 2, 10 mg/kg): 6.16 and 6.75 and 7.36 and 15.2 and 9.45 and 14.06 | Tumor area, individual mice (SYN-115 10 mg/kg, Day 4, 10 mg/kg): 15.75 and 12.16 and 22.55 and 23.52 and 8.36 and 26.95 | Tumor area, individual mice (SYN-115 10 mg/kg, Day 7, 10 mg/kg): 20.7 and 14.04 and 41.44 and 34.77 and 6.24 and 46.92 | Tumor area, individual mice (SYN-115 10 mg/kg, Day 9, 10 mg/kg): 30.53 and 22.09 and 52.08 and 50.37 and 0 and 66.99 | Tumor area, individual mice (SYN-115 10 mg/kg, Day 11, 10 mg/kg): 44.1 and 31.32 and 70.68 and 66.42 and 0 and 89.24 | Tumor area, individual mice (SYN-115 10 mg/kg, Day 14, 10 mg/kg): 52.8 and 48.96 and 108.1 and 114.45 and 0 and 125.08 | Tumor area, individual mice (SYN-115 10 mg/kg, Day 16, 10 mg/kg): 91.44 and 67.86 and 132.84 and 135.42 and 0 and 179.55 | Tumor area, individual mice (SYN-115 10 mg/kg, Day 18, 10 mg/kg): 136.71 and 100.98 and 202.5 and 119.88 and 0 | Tumor area, individual mice (SYN-115 10 mg/kg, Day 21, 10 mg/kg): 175.74 and 162 and 160 and 0 | Tumor area, individual mice (SYN-115 10 mg/kg, Day 25): 0 | Tumor area, individual mice (SYN-115 10 mg/kg, Day 29): 0 | Tumor area, individual mice (SYN-115 10 mg/kg, Day 32): 0 | Tumor area, individual mice (SYN-115 10 mg/kg, Day 35): 0 | Tumor area, individual mice (SYN-115 10 mg/kg, Day 37): 0 | Tumor area, individual mice (SYN-115 30 mg/kg, Day 0, 30 mg/kg): 5 (2×) and 6.24 and 7.56 and 8.7 and 12.48 | Tumor area, individual mice (SYN-115 30 mg/kg, Day 2, 30 mg/kg): 12.6 (2×) and 8.12 and 9.28 and 12.95 and 8.4 | Tumor area, individual mice (SYN-115 30 mg/kg, Day 4, 30 mg/kg): 21.6 (2×) and 15.96 and 13.65 and 24.48 and 10.56 | Tumor area, individual mice (SYN-115 30 mg/kg, Day 7, 30 mg/kg): 42.21 (2×) and 25 and 25.5 and 30.21 and 30.24 | Tumor area, individual mice (SYN-115 30 mg/kg, Day 9, 30 mg/kg): 50.16 (2×) and 35.4 and 29.68 and 47.61 and 31.9 | Tumor area, individual mice (SYN-115 30 mg/kg, Day 18, 30 mg/kg): 204.8 (2×) and 114 and 189.23 and 202.86 and 125.4 | Tumor area, individual mice (SYN-115 30 mg/kg, Day 21, 30 mg/kg): 153.4 and 179.4 | Raw Tumor Measurements (SYN-115 (1 mg/kg), Day 0, 1 mg/kg): 5.25 and 6.72 and 8.37 and 7.84 and 9.6 and 10.36 | Raw Tumor Measurements (SYN-115 (1 mg/kg), Day 2, 1 mg/kg): 12.95 and 12.54 and 15.6 and 13.6 and 12.71 and 15.84 | Raw Tumor Measurements (SYN-115 (1 mg/kg), Day 4, 1 mg/kg): 14.8 and 22.95 and 21 and 24.99 and 20.4 and 24.19 | Raw Tumor Measurements (SYN-115 (1 mg/kg), Day 16, 1 mg/kg): 144.1 and 103.55 and 103.74 and 155.61 | Raw Tumor Measurements (SYN-115 (1 mg/kg), Day 18, 1 mg/kg): 208.68 and 167.24 and 138.6 | Raw Tumor Measurements (SYN-115 (1 mg/kg), Day 21): 173.46 | Raw Tumor Measurements (SYN-115 (5 mg/kg), Day 0, 5 mg/kg): 4.8 and 7.8 and 7.54 and 8.84 | Raw Tumor Measurements (SYN-115 (5 mg/kg), Day 2, 5 mg/kg): 13.12 and 11.16 and 13.26 and 10.36 | Raw Tumor Measurements (SYN-115 (5 mg/kg), Day 4, 5 mg/kg): 20.8 and 11.2 and 18.45 and 19.52 | Raw Tumor Measurements (SYN-115 (5 mg/kg), Day 25, 5 mg/kg): 163.8 and 83.52 | Raw Tumor Measurements (SYN-115 (5 mg/kg), Day 29): 101.76 | Raw Tumor Measurements (SYN-115 (5 mg/kg), Day 32): 124.74 | Raw Tumor Measurements (SYN-115 (5 mg/kg), Day 35): 146.52
